For the test, the target named is T1, 5-HT1A autoreceptor (5-HT1AAR) of Tph2-/- mouse dorsal raphe serotonergic neurons (Mus musculus, UniProt Q64264).
T1 construct: gene Htr1a
T1 sequence (Q64264 1-421): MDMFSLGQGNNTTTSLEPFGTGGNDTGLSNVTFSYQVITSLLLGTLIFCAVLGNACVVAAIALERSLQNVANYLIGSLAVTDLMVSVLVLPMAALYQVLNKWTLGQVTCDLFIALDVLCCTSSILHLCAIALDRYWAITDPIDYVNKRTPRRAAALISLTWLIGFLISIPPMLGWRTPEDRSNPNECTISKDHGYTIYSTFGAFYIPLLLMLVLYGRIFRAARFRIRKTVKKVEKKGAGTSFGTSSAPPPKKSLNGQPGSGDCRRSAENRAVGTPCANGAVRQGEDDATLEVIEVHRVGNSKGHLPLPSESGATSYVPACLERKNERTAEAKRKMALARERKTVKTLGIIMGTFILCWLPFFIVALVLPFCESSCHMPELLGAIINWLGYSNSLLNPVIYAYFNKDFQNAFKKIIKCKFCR
Conditions: agonist; 10 μM phenylephrine and synaptic blockers present; 34-36 °C; four of nine neurons (those silenced by 1 μM).

For the compound `O=c1n(CCCN2CCN(c3cccc(Cl)c3)CC2)nc2ccccn12` [Trazodone], the “% decrease of firing at 1 μM” value was determined as 96.1 ± 7.3%.

The values are drawn from PMC6763016 (PLoS ONE, 2019).
